Source: PubChem BioAssay (NCI)
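Tested at 5 concentrations; 48 h exposure; 96-well plates; endpoints linearly interpolated, else capped at highest concentration. TGI: concentration producing complete growth inhibition.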

Columns and labels:
Assay in all cases: NCI tumour cell line growth inhibition, 48 h
SR leukemia = tested on: SR leukemia
SNB-75 CNS = tested on: SNB-75 CNS
786-0 renal = tested on: 786-0 renal
MALME-3M melanoma = tested on: MALME-3M melanoma
SN12C renal = tested on: SN12C renal
UACC-62 melanoma = tested on: UACC-62 melanoma
HCT-116 colon = tested on: HCT-116 colon
SK-MEL-28 melanoma = tested on: SK-MEL-28 melanoma
TK-10 renal = tested on: TK-10 renal
NCI-H522 lung = tested on: NCI-H522 lung
PC-3 prostate = tested on: PC-3 prostate
K-562 leukemia = tested on: K-562 leukemia
MOLT-4 leukemia = tested on: MOLT-4 leukemia
MDA-MB-231 breast = tested on: MDA-MB-231 breast
MDA-N = tested on: MDA-N
BT-549 breast = tested on: BT-549 breast
SF-268 CNS = tested on: SF-268 CNS
NCI-H23 lung = tested on: NCI-H23 lung
UACC-257 melanoma = tested on: UACC-257 melanoma
SW-620 colon = tested on: SW-620 colon
OVCAR-3 ovarian = tested on: OVCAR-3 ovarian
DU-145 prostate = tested on: DU-145 prostate
OVCAR-4 ovarian = tested on: OVCAR-4 ovarian
A498 renal = tested on: A498 renal
IGROV1 ovarian = tested on: IGROV1 ovarian
SNB-19 CNS = tested on: SNB-19 CNS
RXF 393 renal = tested on: RXF 393 renal
HL-60(TB) leukemia = tested on: HL-60(TB) leukemia
NCI-H460 lung = tested on: NCI-H460 lung
NCI/ADR-RES ovarian = tested on: NCI/ADR-RES ovarian
HS 578T breast = tested on: HS 578T breast
T-47D breast = tested on: T-47D breast
KM12 colon = tested on: KM12 colon
UO-31 renal = tested on: UO-31 renal
OVCAR-5 ovarian = tested on: OVCAR-5 ovarian
HCT-15 colon = tested on: HCT-15 colon
SF-295 CNS = tested on: SF-295 CNS
EKVX NSCLC = tested on: EKVX NSCLC
RPMI-8226 leukemia = tested on: RPMI-8226 leukemia
SK-MEL-5 melanoma = tested on: SK-MEL-5 melanoma
HOP-92 NSCLC = tested on: HOP-92 NSCLC
HOP-62 NSCLC = tested on: HOP-62 NSCLC
CCRF-CEM leukemia = tested on: CCRF-CEM leukemia
SF-539 CNS = tested on: SF-539 CNS
ACHN renal = tested on: ACHN renal
LOX IMVI melanoma = tested on: LOX IMVI melanoma
NCI-H226 lung = tested on: NCI-H226 lung
HCC-2998 colon = tested on: HCC-2998 colon
M14 melanoma = tested on: M14 melanoma
OVCAR-8 ovarian = tested on: OVCAR-8 ovarian
SK-OV-3 ovarian = tested on: SK-OV-3 ovarian
A549 NSCLC = tested on: A549 NSCLC
COLO 205 colon = tested on: COLO 205 colon
MDA-MB-435 = tested on: MDA-MB-435
MCF7 breast = tested on: MCF7 breast
HT29 colon = tested on: HT29 colon
SK-MEL-2 melanoma = tested on: SK-MEL-2 melanoma
CAKI-1 renal = tested on: CAKI-1 renal
U251 CNS = tested on: U251 CNS

COc1cc2c(cc1O)Cc1c-2[n+](C)cc2cc(OC)c(OC)cc12
TGI (SR leukemia): > 22.1 µM
TGI (SNB-75 CNS): > 100 µM
TGI (786-0 renal): > 44.7 µM
TGI (MALME-3M melanoma): > 100 µM
TGI (SN12C renal): > 100 µM
TGI (UACC-62 melanoma): > 77.9 µM
TGI (HCT-116 colon): > 100 µM
TGI (SK-MEL-28 melanoma): > 100 µM
TGI (TK-10 renal): > 100 µM
TGI (NCI-H522 lung): > 100 µM
TGI (PC-3 prostate): > 100 µM
TGI (K-562 leukemia): > 100 µM
TGI (MOLT-4 leukemia): > 39.4 µM
TGI (MDA-MB-231 breast): > 100 µM
TGI (MDA-N): > 100 µM
TGI (BT-549 breast): > 57.9 µM
TGI (SF-268 CNS): > 100 µM
TGI (NCI-H23 lung): > 100 µM
TGI (UACC-257 melanoma): > 100 µM
TGI (SW-620 colon): > 100 µM
TGI (OVCAR-3 ovarian): > 100 µM
TGI (DU-145 prostate): > 100 µM
TGI (OVCAR-4 ovarian): > 100 µM
TGI (A498 renal): > 100 µM
TGI (IGROV1 ovarian): > 100 µM
TGI (SNB-19 CNS): > 50 µM
TGI (RXF 393 renal): > 100 µM
TGI (HL-60(TB) leukemia): > 100 µM
TGI (NCI-H460 lung): > 100 µM
TGI (NCI/ADR-RES ovarian): > 100 µM
TGI (HS 578T breast): > 100 µM
TGI (T-47D breast): > 100 µM
TGI (KM12 colon): > 100 µM
TGI (UO-31 renal): > 100 µM
TGI (OVCAR-5 ovarian): > 100 µM
TGI (HCT-15 colon): > 100 µM
TGI (SF-295 CNS): > 100 µM
TGI (EKVX NSCLC): > 100 µM
TGI (RPMI-8226 leukemia): > 100 µM
TGI (SK-MEL-5 melanoma): 23.3 µM
TGI (HOP-92 NSCLC): > 100 µM
TGI (HOP-62 NSCLC): > 100 µM
TGI (CCRF-CEM leukemia): > 24.9 µM
TGI (SF-539 CNS): 7.46 µM
TGI (ACHN renal): > 100 µM
TGI (LOX IMVI melanoma): > 100 µM
TGI (NCI-H226 lung): > 100 µM
TGI (HCC-2998 colon): > 100 µM
TGI (M14 melanoma): > 100 µM
TGI (OVCAR-8 ovarian): > 100 µM
TGI (SK-OV-3 ovarian): > 100 µM
TGI (A549 NSCLC): > 100 µM
TGI (COLO 205 colon): > 100 µM
TGI (MDA-MB-435): > 100 µM
TGI (MCF7 breast): > 100 µM
TGI (HT29 colon): > 100 µM
TGI (SK-MEL-2 melanoma): > 100 µM
TGI (CAKI-1 renal): > 100 µM
TGI (U251 CNS): 21.5 µM
